{"source": "patent US20100204156A1", "about": "“USE OF THYMOPENTIN AS A THERAPEUTIC AGENT” (priority 2007, published 2010)", "system": "drug-resistant Mycobacterium tuberculosis", "details": "5 micrograms per ml", "note": "Residues, ends and D or L forms follow the SMILES beside them."}
{"smiles": "CC(C)[C@H](NC(=O)[C@H](CC(=O)O)NC(=O)[C@H](CCCCN)NC(=O)[C@@H](N)CCCN=C(N)N)C(=O)N[C@@H](Cc1ccc(O)cc1)C(=O)O", "note": "[Thymopentin, Arg-Lys-Asp-Val-Tyr-OH] (H-RKDVY-OH)", "values": [{"measurement": "% inhibition", "result": 0.0, "unit": "%"}]}
